SMILES	melting point [°C]
CC(=O)OCCBr	-13.8
CN(N)c1cnn(C)c(=O)c1Cl	131 to 133
Cc1nn(C)c(Cl)c1S(=O)(=O)Cl	35
CCCC(CCC)C(=O)O	125
CCOC(=O)c1ccc2c(c1)OCO2	18.5
Cc1cc[nH]n1	36.5
CS(=O)CCC(N)C(=O)O (racemic)	232 to 234
CCC1CN2CCC3(C(=O)Nc4ccccc43)C2CC1C(=COC)C(=O)OC (stereo unspecified)	216
CC(CC(C)(C)C)CC(C)(C)C	-67
CC(=O)N1C(=O)N(C(C)=O)C2C1N(C(C)=O)C(=O)N2C(C)=O (stereo unspecified)	234 to 238
CC12CCC(C(Br)=C(Br)C1=O)C2(C)C (stereo unspecified)	103
CC(=O)C=NO	69
CC(C)(C)c1cc(S)cc(C(C)(C)C)c1O	76
O=Cc1ccc(O)c(Br)c1	127
CC=C(OC)C(=O)O	58
N[C@H](c1ccccc1)[C@H](N)c1ccccc1	81 to 84
Cc1ccc(F)c(C#N)c1Cl	59
COC=C(C(=O)OC)c1ccccc1Oc1cc(Oc2ccccc2C#N)ncn1	116
COc1cc2c(c3oc(=O)c4c(c13)CCC4=O)C1CCOC1O2 (stereo unspecified)	288
CC(=O)OC1C(C2COC(C)(C)O2)OC2OC(C)(C)OC21 (stereo unspecified)	60 to 62
CCSC(C)C	-122
COCCCn1c(C(=O)O)cc2c(=O)n(C)c(=O)n(C)c21	166
C=CC(C)(CCC=C(C)C)OC(C)=O (stereo unspecified)	< 25
OCC1OC(O)C(F)C(O)C1O (stereo unspecified)	170 to 176
CC(C)(C)[Si](C)(C)ON	64
O=NN1CCCC1c1cccnc1 (stereo unspecified)	47
COc1cccc(C=O)c1OC	52

SMILES	melting point [°C]
N#CC1(c2c(F)cccc2Cl)CCCCC1	76 to 81
CC12CCC3=C(CC[C@]4(C)C(=O)CC[C@@H]34)[C@H]1CCC(=O)C2 (stereo partly specified)	149
CCOC(=O)C12CCC(C(=O)OCC)(CC1=O)C(=O)C2	111 to 113
Oc1c(Cl)cc(Cl)c(Cl)c1Cl	70
N#CC1(c2ccc(F)cc2Cl)CCCC1	49 to 52
CS(=O)(=O)Nc1cccc(C=O)c1	146 to 147
COC(=O)C(C)Cl (stereo unspecified)	-10
CCOC(=O)c1c(NC(=S)Nc2cccc(Cl)c2)sc2c1CCCC2	175 to 177
Clc1ncnc2[nH]cnc12	300
O=C(O)C(F)(F)C(F)(F)C(F)(F)C(F)(F)C(=O)O	134
CS(=O)(=O)OCCCNCCCOS(C)(=O)=O	116
CCCCCCCCCCN(CCCCCCCCCC)CCCCCCCCCC	-5 to -3
COCCl	-104
COc1cc(C(=O)O)cc(Cl)c1O	245
CCCN(CCC)c1c([N+](=O)[O-])cc(C)cc1[N+](=O)[O-]	80
O=C1c2ccccc2C(=O)C1C(=O)C(c1ccccc1)c1ccccc1	146
C#CCNC(N)=O	130 to 131
COc1ccc(C(N)=O)cc1N	158
C=C(Br)C(=O)O	68
O=c1ccc(=O)[nH][nH]1	306
CCC1(CC2(c3cccc(Cl)c3)CO2)C(=O)c2ccccc2C1=O (stereo unspecified)	61
CC(=O)c1cc[nH]c1	112 to 114
CC1CNC(C(O)(C2=NCC(C)N2)C2=NCC(C)N2)=N1 (stereo unspecified)	178 to 180
NCCNCCO	-28
COc1ccc(Br)cc1F	16
C=C(NC(C)=O)C(=O)OC	50

More lines, now with the values ahead:

melting point [°C]	SMILES
157	Cc1cccc(N/N=C(/C#N)c2nc(-c3ccc(Cl)cc3)cs2)c1
108	CC(=O)/C=C1\NC(=O)c2ccccc21
90 to 95	Cc1nc2ccc(-c3ccccc3)cc2s1
280	Cc1cc(C)c2c(N)n[nH]c2n1
78 to 80	O=S(=O)(Cl)Cc1ccccc1Br
108	O=C(c1ccncc1)c1ccc(Cl)cc1
171	S=C(NCC(c1ccccc1)c1ccccc1)Nc1ccccc1
178 to 179	O=[N+]([O-])c1ccc(-c2ccc(/N=N/c3ccccc3)cc2)cc1
147	CC(=O)Nc1ccc(Cl)cc1Cl
222 to 230	O=CC(C=O)c1nc2ccccc2o1
187 to 190	COc1cccc(OC)c1C(=O)O
125	CC12CCC(c3cn(-c4ccccc4)nc31)C2(C)C (stereo unspecified)
241	O=C(c1nn2c(nc(=O)c3ccccc32)s1)c1cccc2ccccc12
249	Cn1c(=O)c(C2=NNC(=O)C2=CCc2ccccc2)c(O)c2ccccc21
85	COc1c(C(C)C)oc2cc3oc(=O)ccc3cc12
172	CC(=O)Nc1ccccc1CCN(CCc1ccccc1NC(C)=O)N=O
98	C#Cc1ccc2nccnc2c1
171 to 175	O=C(O)c1cccc(F)c1C(=O)O
246 to 247	O=C(Nc1cccc(Cl)c1)Nc1nnc(-c2ccc(Cl)cc2)o1
174	O=C(Nc1nc2ccccc2s1)C(C(F)(F)F)C(F)(F)F
83	CC(=O)Oc1ccccc1C(=O)OC(=O)c1ccccc1OC(C)=O
149	O=C(O)COC(=O)Cc1ccccc1Nc1c(Cl)cccc1Cl
130 to 136	O=C(N[C@H]1CCCC[C@H]1C(=O)O)OCc1ccccc1 (relative stereo)
222	N#CC1C(=S)NC2(C(=O)Nc3ccccc32)C2=C1CCCC2 (stereo unspecified)
88 to 91	Clc1ccc(-n2cccc2)cc1
29.3	CCCCCCCCCCCCCCCCCC(CC)c1ccccc1 (stereo unspecified)

melting point [°C]	SMILES
164	Fc1ccc(NC(=S)Nc2cc(Cl)cc(Cl)c2)cc1
144 to 148	CC(C)(C)c1cc(C(=O)c2ccccc2)c(O)cc1O
121 to 123	Cc1ccccc1C1(C#N)Cc2ccccc2C(=O)O1 (stereo unspecified)
208	CCCSc1ccc2[nH]c(NC(=O)OC)nc2c1
117 to 118	Cc1oc(-c2ccccc2)nc1CO
147 to 149	c1ccc2c(c1)OCCOCCNCCOCCO2
86 to 87	BrCc1ccc(-c2ccccc2)cc1
283 to 289	Oc1ccc(C(c2ccccc2)(c2ccccc2)c2ccccc2)cc1
106	CCCCc1ccc(C(=O)O)cc1
84 to 87	CC(C)(C)P(c1ccccc1-c1ccccc1)C(C)(C)C
215	O=C(O)C(=O)Cc1c[nH]c2ccccc12
73 to 76	Cc1nc(-c2ccc(CBr)cc2)cs1
220	COc1ccc(-c2nnc3n2NC(c2ccccc2O)S3)cc1 (stereo unspecified)
59	Brc1cccnc1Br
88	CC(=O)c1ccc2ccc3cccc4ccc1c2c34
86	COc1ccccc1C(=S)N1CCOCC1
191	Cc1c(C2(c3cc(C(C)C)c(O)c(CN(CC(=O)O)CC(=O)O)c3C)OC(=O)c3ccccc32)cc(C(C)C)c(O)c1CN(CC(=O)O)CC(=O)O
26	CCCc1cccc(O)c1
171 to 172	Cc1nnc2sc(SCc3ccc(Cl)cc3)nn2c1=O
200 to 204	Nc1nc2ccccc2n1Cc1ccccc1
75	BrC(Br)=Cc1ccccc1
103	c1ccc(-c2coc(-c3ccccc3)n2)cc1
111	O=C(Cc1ccccc1)c1ccc(Br)cc1
110	O=Nc1c(O)ccc2ccccc12
92 to 95	COc1ccc(C=CC(=O)c2ccc3ccccc3c2)cc1
120 to 125	O=S(=O)(NO)c1ccccc1

melting point [°C]	SMILES
137 to 138	Cc1cc(Br)c(N)cc1OCc1ccccc1
137 to 138	O=c1c(Cl)c(Cl)cnn1Cc1c(F)cccc1Cl
286 to 288	Sc1ncnc2c1cnn2-c1ccccc1
42	CC(C)=NNc1ccccc1
90 to 93	Cc1ccc(S(=O)(=O)OCCCOS(=O)(=O)c2ccc(C)cc2)cc1
49	CN(C)c1cccc2cccc(N(C)C)c12
76 to 77	CCOC(=O)C=Cc1ccccc1N
77	N#CCc1ccccc1OCc1ccccc1
173 to 178	Cc1cc2cc([N+](=O)[O-])ccc2[nH]1
59 to 61	Cn1nc(CCl)cc1-c1ccccc1
118	COc1ccc(N/N=C(/C(=O)c2cccc3ccccc23)S(=O)(=O)c2ccccc2)cc1
159 to 160	O=Cc1nc(-c2ccccc2Cl)c2cc(Cl)ccc2n1
128 to 132	Cc1ccc(C)c(CC(=O)O)c1
98	Fc1ccc2c(c1)Cc1ccccc1-2
77 to 80	CCOC(=O)C(Cl)=NNc1ccccc1
65 to 68	CSc1ccc([N+](=O)[O-])cc1
121 to 123	Cc1ccc2cc(Cl)c(Cl)cc2n1
55 to 56	CCC(O)c1ccc(-c2ccccc2F)cc1 (stereo unspecified)
107	CC(=O)OCOC(=O)C1N2C(=O)C(NC(=O)Cc3ccccc3)C2SC1(C)C (stereo unspecified)
74	Nc1ccc(Br)c(Cl)c1
160	Cc1ccc(C(=O)/C=C/c2ccc(-c3cccc([N+](=O)[O-])c3)o2)o1
93	O=C1c2ccccc2CC2C=CC=CN12 (stereo unspecified)
160 to 165	Cc1ccc(N)cc1O
159 to 160	CC1(c2ccccc2)CC(C(=NOCC2CO2)c2cc3ccccc3o2)C1 (stereo unspecified)
262 to 265	O=c1ncn2nc(Sc3ccccc3)ccc2c1-c1c(Cl)cccc1Cl
230	O=C1C=C(NCc2ccc(Cl)cc2)C(=O)c2ccccc21

Source: a melting point compilation (Tetko et al.)
